# Measured values from ChEMBL document CHEMBL1133377, “1-[2-(Diphenylmethoxy)ethyl]-2-methyl-5-nitroimidazole: a potent lead for the design of novel NNRTIs” (Bioorg Med Chem Lett, 2000).
# Tests used:
# [1] = Compound dose required to reduce viability of mock infected cells using MTT method; assay type: functional
# [2] = Selectivity index is ratio of CC50 to that of EC50; assay type: functional
# [3] = target: Human immunodeficiency virus type 1 reverse transcriptase (Human immunodeficiency virus 1, UniProt Q72547); assay: Compound dose required to inhibit HIV-1 reverse transcriptase enzyme(rRT) activity
# MT4 = assay: Compound dose required to achieve protection of MT-4 cells from HIV-1 induced cytopathicity using MTT method; assay type: functional, cell-based; details: Homo sapiens
Compound,CC50 [1],S.I [2],IC50 [3],EC50 (MT4)
Cc1ncc([N+](=O)[O-])n1CCOC(c1ccccc1)c1ccc(C(C)(C)C)cc1 (centres undefined),44 µM,11,1.5 µM,4 µM
Cc1ncc([N+](=O)[O-])n1CCOC(c1ccccc1)c1ccccc1,> 200 µM,> 1000,0.05 µM,0.2 µM
c1ccc(C(OCCn2ccnc2)c2ccccc2)cc1,100 µM,–,–,> 100 µM
Cc1ncc([N+](=O)[O-])n1CCOC(c1ccccc1)c1ccc(F)cc1 (centres undefined),> 200 µM,222,2.3 µM,0.9 µM
Clc1ccc(C(OCCn2ccnc2)c2ccc(Cl)cc2Cl)cc1 (centres undefined),26 µM,–,–,> 26 µM
Clc1ccc(C(OCCn2ccnc2)c2ccccc2)c(Cl)c1 (centres undefined),31 µM,–,–,> 31 µM
Cc1ncc([N+](=O)[O-])n1CCOC(c1ccccc1)c1ccc(Cl)cc1 (centres undefined),> 200 µM,> 16,–,12.5 µM
Cc1ncc([N+](=O)[O-])n1CCOC(c1ccccc1)c1ccc(-c2ccccc2)cc1 (centres undefined),> 200 µM,12,–,17 µM
Cc1ncc([N+](=O)[O-])n1CCOC(c1ccccc1)c1ccc(Cl)cc1Cl (centres undefined),54 µM,36,1.4 µM,1.5 µM
Cc1ccnc2c1NC(=O)c1cccnc1N2C1CC1 [NEVIRAPINE],> 300 µM,> 1000,–,–
Cc1ccc(C(OCCn2c([N+](=O)[O-])cnc2C)c2ccccc2)cc1 (centres undefined),86 µM,61,2.1 µM,1.4 µM
